Series [1] can be described thus: Abi metabolites in sera of patients with CRPC treated with Abi acetate. Format: in vivo, human. The conditions noted are these: patients undergoing treatment with Abi acetate. As for the experimental part: Patient serum collection and drug extraction. Twelve patients with CRPC undergoing treatment with Abi acetate were consented under an Institutional Review Board—approved protocol (Case 7813). Blood was collected using Vacutainer Plus serum blood collection tubes (#BD367814, Becton Dickenson, Franklin Lakes, N.J.). Blood was collected between 2 and 14 hours after the 1000 mg daily dose of Abi acetate was administered. Blood was allowed to clot and tubes were centrifuged at 2500 RPM for 10 minutes. Serum aliquots were frozen at −80° C. until processing. Drug metabolites and internal standard (d4-cortisol, CDN isotopes Pointe-Claire, Quebec Canada) were extracted from 200 μL of patient serum with methyl tert-butyl ether (Sigma Aldrich, St. Louis, Mo.), evaporated under a stream of nitrogen gas and reconstituted in methanol prior to mass spectrometry analysis.
Patient serum analysis. Blood was obtained from prostate cancer patients with consent under a protocol approved by the Cleveland Clinic Institutional Review Board. Samples were analyzed on a ultra high-performance liquid chromatography station (Shimadzu, Kyoto, Japan) with a DGU-20A3R degasser, 2 LC-30AD pumps, a SIL-30AC autosampler, a CTO-10A column oven and a CBM-20A system controller in tandem with a QTRAP 5500 mass spectrometer (AB Sciex, Framingham, Mass.). […]

The test system of series [2] is VCaP xenografts. Kind of series: VCaP xenograft progression in orchiectomized mice with DHEA pellet. Format: in vivo. The conditions noted are these: 0.5 mmol/kg/d i.p.; compared to the Abi acetate group, P=0.011. Here is the method: Male NSG mice, 6 to 8 weeks of age were obtained from the Cleveland Clinic Biological Resources Unit facility. All mouse studies were conducted under a protocol approved by the Cleveland Clinic Institutional Animal Care and Use Committee. Sample size was determined based on our prior studies of steroidogenesis inhibition in xenograft models of CRPC. Chang et al., Proc Natl Acad Sci USA., 108:13728-13733 (2011). Criteria for progression were determined based on similar criteria that are utilized for clinical progression. Mice were surgically orchiectomized and implanted with a 5 mg 90-day sustained-release DHEA pellet (Innovative Research of America) to mimic CRPC in the context of human adrenal physiology. Two days later, 10^7 VCaP or C4-2 cells were injected subcutaneously with matrigel. Once tumors reached 300 mm^3 (length×width×height×0.52), mice were arbitrarily (but not strictly randomized) assigned to vehicle (n=9 or 10 mice for VCaP and C4-2 respectively), Abi acetate (n=10 mice for both cell lines), D4A (n=10 mice for both cell lines) or enzalutamide (n=11 for C4-2) treatment groups. […] Tumor volume was measured daily, and time to increase in tumor volume by 20% was determined. […] The significance of the difference between treatment groups was assessed by Kaplan-Meier survival analysis using a log-rank test in SigmaStat 3.5.

In series [3] the test system is AR chromatin occupancy on PSA, TMPRSS2 and FKBP5 regulatory elements. Put plainly: AR chromatin occupancy ChIP assay in LNCaP cells. The class given is cell-based, human. Particulars: 3 h. Here is the method:
LNCaP cells were serum-starved for at least 48 h and treated with indicated drugs and DHT for 3 h. A ChIP assay was performed with an anti-AR antibody (Santa Cruz, sc-816) as described previously. Li et al., Proc Natl Acad Sci USA. 108:3116-3123 (2011). All of the precipitated DNA samples were quantified by qPCR and normalized to input DNA. All ChIP experiments were performed at least three times. Primers used for ChIP experiments are from experiments previously described. Evaul et al., Endocrinology, 151:3514-3520 (2010).

Each structure is given as a SMILES string.

For the molecule `C[C@]12CCC(=O)C=C1CC[C@@H]1[C@@H]2CC[C@]2(C)C(c3cccnc3)=CC[C@@H]12` [Compound D4A, 17-(3-Pyridyl)androsta-4,16-dien-3-one], the “detection in sera of patients with CRPC” value in series [1] is “detectable”. In addition, the “time to tumor progression (>20% increase in tumor volume)” value in series [2] is “significantly delayed”. Further, the “inhibition of DHT-induced AR chromatin occupancy” value in series [3] is “superior to Abi and somewhat lower than enzalutamide”.

The values above are taken from patent publication US10265329B2, “Altering steroid metabolism for treatment of steroid-dependent disease” (THE CLEVELAND CLINIC FOUNDATION, priority 2015, dated 2019).
